In PMC11513923, “Discovery of ZLC491 as a Potent, Selective, and Orally Bioavailable CDK12/13 PROTAC Degrader” (Journal of Medicinal Chemistry, 2024):
“Also recorded” adds a separate entry of the source. Read-outs that look alike come from different tables or passages of the source. Values belong to the molecule of their own block, whether it stands above or below them.

What was measured:
MDA-MB-231 cells = experiment: Drug combination assay with ZLC491; format: cell-based, human
Procedure: (A) Transcription level of DDR genes in MDA-MB-231 cells determined by RT-qPCR upon the treatment with vehicle or ZLC491 at different doses for 12 h, ROR1 was used as a negative control; (B) immunoblotting of DDR proteins in MDA-MB-231 cells after the treatment of ZLC491 at different doses for 48 h; (C) cell antiproliferative activity of ZLC491 in multiple TNBC cells as well as several noncancerous cells. Cells were treated with the compound for 5 days; (D,E) antiproliferative potency of cisplatin or olaparib alone or combined with ZLC491 at different doses in MDA-MB-231 cells for 5 days. Data are plotted using the percentage of absorbance relative to DMSO controls. (F) IC50 values and combination index (CI) in drug combination assay. In this model, CI scores estimate the interaction between the two drugs. If CI < 1, the drugs have a synergistic effect and if CI > 1, the drugs have an antagonistic effect. CI = 1 means the drugs have an additive effect. ^aThe drug combination in the table refers to the starting concentration of the two combined drugs, that would both go through serial dilution when treating cells.
Tested cells were plated in 96-well or 384-well plates and incubated at 37 °C with or without 5% CO2. […] Cell proliferation was measured 5 days after compound treatment using Cell Counting Kit-8 (Selleck) according to the manufacturer’s instructions. […]

CDK13 = molecular target: T1, CDK13 (Homo sapiens, UniProt Q14004); experiment: CDK13 degradation in MDA-MB-231 cells by immunoblotting; format: cell-based; details: MDA-MB-231 cells, 0.3 μM, 15 h, immunoblotting, normalized against α-tubulin;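 also: percent of CDK13 protein degraded relative to DMSO control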
T1 construct: Immunoblotting of CDK12 and CDK13 in MDA-MB-231 cells treated with increasing concentrations of ZLC491 for 15 h; endogenous in cells; host or cells: MDA-MB-231
Procedure: (§1) The degradation efficiency of the new molecules was assessed by immunoblotting after treatment with the compounds at 0.3 μM in MD-MBA-231 cells for 15 h.
(§2) To further characterize the compound, we determined the half-degradation concentration (DC50) values of ZLC491 in MDA-MB-231 cells. […] We also treated MDA-MB-231 cells with 1 μM ZLC491 at various time points.
(§3) (A) Immunoblotting of CDK12 and CDK13 in MDA-MB-231 cells treated with increasing concentrations of ZLC491 for 15 h (left). Percent remaining CDK12 and CDK13 proteins were plotted for DC50 determination (right). Protein levels were quantified using ImageJ and normalized to corresponding α-tubulin, then plotted using Graphpad Prism 8.0. The data were representative of three independent experiments; (B) immunoblotting of CDK12 and CDK13 proteins in MDA-MB-231 cells treated with ZLC491 for various time points; immunoblotting of CDK12 and CDK13 in HCC38 (C) and MDA-MB-436 (D) cells treated with increasing concentrations of ZLC491 for 15 h. α-Tubulin was used as a loading control. TEXT PRINTED IN THE PICTURE: (A) ZLC491: MDA-MB-231: CDK12 DC50 = 0.032μM; MDA-MB-231: CDK13 DC50 = 0.028μM DOUBTS OF THE COPYIST ABOUT THIS PICTURE: ZLC491, CDK12 DC50: 0.032 read from small print, the digits 3 and 2 are uncertain / ZLC491, CDK13 DC50: 0.028 read from small print, the last digit may be 8, 6 or 3
(§4) Generally, the tested cells were washed by ice-cold PBS buffer (Gibco) and lysed with an SDS lysis buffer (62.5 mM Tris, 2% w/v SDS, 10 glycerol, 50 mM DTT, 0.01% w/v bromophenol blue) on ice, after which the protein lysate samples were collected to 1.5 mL microcentrifuge tubes and treated with ultrasonic for 10 s, following with a 100 °C incubation for 10 min and a 4 °C centrifugation of 12000 rpm for 10 min. An equal amount of protein was loaded to 4–8% Bis-Tris gels and underwent an SDS-PAGE electrophoresis at 55V for 30 min and 95V for 90 min. Proteins on gels were then transferred to a polyvinylidene difluoride (PVDF) membrane (Bio-Rad) with a wet electro transfer system (Bio-Rad). The PVDF membrane was cut into bands and incubated in a blocking reagent (5% defatted milk powder dissolved in TBST) at room temperature for 1–2 h. Incubate membrane and primary antibody (at the appropriate dilution and diluent as recommended in the product webpage) at 4 °C for 12–14 h, followed with three times washes by TBST. The washed membranes were incubated in a secondary antibody solution (HRP-linked antirabbit IgG or antimouse IgG (CST), 1:2000 diluted into TBST) at room temperature for 2 h. Membranes were photographed in Amersham Imager 800 system using StarSignal plus regent (GenStar) or Omni-ECL reagent (EpiZyme). Compounds MG132, MLN4924, Bafilomycin A1 and pomalidomide were purchased from MedChemExpress (MCE) LLC.

CDK12 = CDK12 (Homo sapiens, UniProt Q9NYV4); experiment: CDK12 degradation in MDA-MB-231 cells by immunoblotting; format: cell-based; design: Immunoblotting of CDK12 and CDK13 in MDA-MB-231 cells treated with increasing concentrations of ZLC491 for 15 h; endogenous in cells; host or cells: MDA-MB-231; details: MDA-MB-231 cells, 0.3 μM, 15 h, immunoblotting, normalized against α-tubulin
Procedure: as §1, §2, §3, §4

[1] = design: method as in PMID 35938508; details: rats; cited from earlier work
[2] = system: TNBC cells and noncancerous cells; experiment: Cell proliferation assay of the negative control in multiple TNBC and noncancerous cells; format: cell-based, human; details: multiple TNBC and noncancerous cell lines, 5 days
Procedure: The antiproliferative effects of ZLC491 against TNBC cells were also evaluated. […] We thus investigated the synergistic effects of ZLC491 with DNA cross-linker cisplatin.
Tested cells were plated in 96-well or 384-well plates and incubated at 37 °C with or without 5% CO2. After overnight incubation, serial dilutions of compounds were added to the plate. Cell proliferation was measured 5 days after compound treatment using Cell Counting Kit-8 (Selleck) according to the manufacturer’s instructions.
Figure S3. Immunoblotting of CCNK in MDA-MB-231 cells treated with increasing concentrations of ZLC491 for 15 h.
Figure S4. Cell antiproliferative activity of ZLC491N in multiple TNBC cells as well as noncancerous cells. Cells were treated with the compound for 5 days. […]

CDK12/13 = experiment: Immunoblotting of CDK12/13 in MDA-MB-231 cells (time course, negative control, series comparison); format: cell-based, human; details: 1 μM, 10 h
Procedure: as §2, §3
Figure 4 ZLC491 induced CDK12/13 degradation in a CRBN- and proteasome-dependent fashion. […]

[3] = design: method as in doi:10.1200/JCO.2020.38.15_suppl.3500, PMID 26200936; details: cited from earlier work

T1 sequence (Q14004 whole entry): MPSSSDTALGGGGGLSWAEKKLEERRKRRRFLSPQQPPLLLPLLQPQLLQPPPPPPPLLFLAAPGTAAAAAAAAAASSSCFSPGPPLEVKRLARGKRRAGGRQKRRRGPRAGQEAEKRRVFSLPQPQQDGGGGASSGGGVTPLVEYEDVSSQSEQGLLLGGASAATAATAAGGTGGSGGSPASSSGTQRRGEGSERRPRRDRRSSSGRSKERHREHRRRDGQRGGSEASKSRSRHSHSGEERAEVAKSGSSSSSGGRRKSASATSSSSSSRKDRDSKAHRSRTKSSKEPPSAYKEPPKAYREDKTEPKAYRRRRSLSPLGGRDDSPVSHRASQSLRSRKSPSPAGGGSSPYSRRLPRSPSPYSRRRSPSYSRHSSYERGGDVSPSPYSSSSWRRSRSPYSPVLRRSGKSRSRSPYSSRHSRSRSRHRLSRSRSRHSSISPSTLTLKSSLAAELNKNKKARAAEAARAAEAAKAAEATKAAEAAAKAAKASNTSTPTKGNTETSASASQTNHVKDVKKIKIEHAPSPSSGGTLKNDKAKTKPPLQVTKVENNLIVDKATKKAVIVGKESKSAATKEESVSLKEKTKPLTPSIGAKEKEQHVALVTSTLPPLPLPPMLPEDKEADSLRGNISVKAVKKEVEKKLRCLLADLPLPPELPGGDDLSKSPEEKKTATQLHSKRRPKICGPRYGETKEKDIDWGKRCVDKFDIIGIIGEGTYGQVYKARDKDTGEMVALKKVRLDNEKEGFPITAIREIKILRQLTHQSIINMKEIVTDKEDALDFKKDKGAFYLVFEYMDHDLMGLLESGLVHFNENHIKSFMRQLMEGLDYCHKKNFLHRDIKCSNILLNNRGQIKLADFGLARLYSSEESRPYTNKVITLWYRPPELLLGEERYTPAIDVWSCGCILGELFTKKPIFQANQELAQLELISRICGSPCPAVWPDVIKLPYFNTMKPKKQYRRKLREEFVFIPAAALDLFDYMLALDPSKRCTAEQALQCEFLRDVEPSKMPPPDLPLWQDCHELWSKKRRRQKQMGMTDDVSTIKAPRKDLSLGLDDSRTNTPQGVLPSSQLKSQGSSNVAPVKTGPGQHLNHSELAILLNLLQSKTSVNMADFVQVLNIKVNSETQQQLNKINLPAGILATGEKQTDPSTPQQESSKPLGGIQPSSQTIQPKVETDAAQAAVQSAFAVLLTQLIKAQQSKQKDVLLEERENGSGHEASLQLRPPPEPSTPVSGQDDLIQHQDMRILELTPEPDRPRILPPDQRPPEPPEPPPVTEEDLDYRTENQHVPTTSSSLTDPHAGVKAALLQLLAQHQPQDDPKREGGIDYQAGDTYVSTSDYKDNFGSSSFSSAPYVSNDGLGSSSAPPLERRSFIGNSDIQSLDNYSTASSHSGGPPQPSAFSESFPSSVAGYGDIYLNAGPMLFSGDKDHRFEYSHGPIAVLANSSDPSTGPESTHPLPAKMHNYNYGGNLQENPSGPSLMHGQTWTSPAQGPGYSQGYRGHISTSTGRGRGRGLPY
T1 sequence (O75909 whole entry partner): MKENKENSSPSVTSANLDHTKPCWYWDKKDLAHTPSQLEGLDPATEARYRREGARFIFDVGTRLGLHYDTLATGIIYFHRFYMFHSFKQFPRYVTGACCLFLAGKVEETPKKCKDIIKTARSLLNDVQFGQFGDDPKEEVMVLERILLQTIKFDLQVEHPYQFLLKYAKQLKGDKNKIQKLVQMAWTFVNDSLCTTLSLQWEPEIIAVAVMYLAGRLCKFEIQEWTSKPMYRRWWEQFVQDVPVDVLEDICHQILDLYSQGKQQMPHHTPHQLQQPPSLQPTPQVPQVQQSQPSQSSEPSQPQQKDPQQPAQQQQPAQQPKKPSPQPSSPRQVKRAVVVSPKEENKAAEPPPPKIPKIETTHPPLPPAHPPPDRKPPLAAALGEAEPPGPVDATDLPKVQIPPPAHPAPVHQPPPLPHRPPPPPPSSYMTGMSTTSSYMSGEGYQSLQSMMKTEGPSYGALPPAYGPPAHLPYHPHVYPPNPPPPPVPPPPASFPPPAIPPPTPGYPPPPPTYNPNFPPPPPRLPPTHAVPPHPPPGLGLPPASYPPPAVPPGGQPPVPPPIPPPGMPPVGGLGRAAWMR
CDK12, sequence (Q9NYV4 whole entry): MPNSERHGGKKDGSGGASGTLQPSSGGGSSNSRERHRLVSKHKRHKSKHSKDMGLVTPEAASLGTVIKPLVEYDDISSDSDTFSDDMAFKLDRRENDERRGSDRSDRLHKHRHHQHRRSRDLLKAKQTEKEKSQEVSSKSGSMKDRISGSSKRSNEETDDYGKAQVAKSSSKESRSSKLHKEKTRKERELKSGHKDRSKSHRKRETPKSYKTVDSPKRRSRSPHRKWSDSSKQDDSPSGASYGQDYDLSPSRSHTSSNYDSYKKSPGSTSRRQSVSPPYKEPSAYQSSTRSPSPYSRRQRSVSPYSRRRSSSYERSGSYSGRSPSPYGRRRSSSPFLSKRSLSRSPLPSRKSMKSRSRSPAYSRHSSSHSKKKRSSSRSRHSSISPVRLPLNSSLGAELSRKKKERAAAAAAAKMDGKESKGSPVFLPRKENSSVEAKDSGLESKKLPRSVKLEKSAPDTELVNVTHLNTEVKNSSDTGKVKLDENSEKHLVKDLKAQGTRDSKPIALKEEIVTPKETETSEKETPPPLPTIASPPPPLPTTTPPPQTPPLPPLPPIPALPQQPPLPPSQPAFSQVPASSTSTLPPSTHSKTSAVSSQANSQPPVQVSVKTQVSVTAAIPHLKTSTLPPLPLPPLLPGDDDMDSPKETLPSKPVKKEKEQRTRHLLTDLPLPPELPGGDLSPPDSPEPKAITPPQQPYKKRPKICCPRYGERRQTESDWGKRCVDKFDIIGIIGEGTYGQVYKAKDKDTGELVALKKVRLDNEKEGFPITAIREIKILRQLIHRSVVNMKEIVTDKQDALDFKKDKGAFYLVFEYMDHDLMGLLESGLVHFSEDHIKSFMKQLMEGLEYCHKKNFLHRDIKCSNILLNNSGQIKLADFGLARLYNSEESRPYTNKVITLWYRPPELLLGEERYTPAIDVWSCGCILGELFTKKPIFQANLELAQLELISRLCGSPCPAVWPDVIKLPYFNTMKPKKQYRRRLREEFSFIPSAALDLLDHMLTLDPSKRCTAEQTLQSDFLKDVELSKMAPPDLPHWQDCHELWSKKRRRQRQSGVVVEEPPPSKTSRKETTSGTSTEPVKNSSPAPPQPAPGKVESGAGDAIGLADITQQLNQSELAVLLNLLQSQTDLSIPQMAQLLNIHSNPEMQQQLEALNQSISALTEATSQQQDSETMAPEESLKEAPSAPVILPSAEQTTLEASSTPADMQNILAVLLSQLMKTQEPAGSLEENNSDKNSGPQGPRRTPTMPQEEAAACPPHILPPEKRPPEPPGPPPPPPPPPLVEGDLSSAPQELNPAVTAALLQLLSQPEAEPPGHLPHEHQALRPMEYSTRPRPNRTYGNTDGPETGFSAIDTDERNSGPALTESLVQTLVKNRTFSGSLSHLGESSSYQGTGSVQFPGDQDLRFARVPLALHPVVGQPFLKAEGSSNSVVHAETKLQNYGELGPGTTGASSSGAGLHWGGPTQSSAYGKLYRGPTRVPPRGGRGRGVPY
CDK12, sequence (O75909 whole entry partner): as the sequence (O75909 whole entry partner) above

Structure (SMILES): N.N.[Cl][Pt][Cl] [Cisplatin, cisplatin]
interaction with ZLC491 in dose–response assays (MDA-MB-231 cells; MDA-MB-231 cells, 5 days): potent synergy

IC50 (MDA-MB-231 cells; Homo sapiens, 120 h, drug A alone, starting concentration 25 μM, MDA-MB-231, 5 days, read-out: IC50 (μM), Drug A: ZLC491 25μM: 0μM): 7.24 µM
Structure (SMILES): O=C(c1cc(Cc2n[nH]c(=O)c3ccccc23)ccc1F)N1CCN(C(=O)C2CC2)CC1 [Olaparib, olaparib]

Protein Degradation (%DMSO control, 0.3 μM) CDK13 (CDK13): 84%
Protein Degradation (%DMSO control, 0.3 μM) CDK12 (CDK12): 75%
Structure (SMILES): N#Cc1ccc(N[C@H]2CC[C@H](N(C(=O)NCc3ccccc3)c3ccc(N4CCN(C(=O)CNc5ccc6c(c5)C(=O)N(C5CCC(=O)NC5=O)C6=O)CC4)cc3)CC2)nc1 (stereo partly drawn) [compound 3]
clearance [1]: high
oral bioavailability [1]: not orally bioavailable; also recorded: nondetectable

Structure (SMILES): CN1C(=O)CCC(N2C(=O)c3cc(F)c(N4CCC(N5CCN(c6ccc(N(C(=O)NCc7ccccc7)[C@H]7CC[C@H](Nc8ccc(C#N)cn8)CC7)cc6)CC5)CC4)cc3C2=O)C1=O (stereo partly drawn) [ZLC491N, 3-Benzyl-1-((1r,4r)-4-((5-cyanopyridin-2-yl)amino)cyclohexyl)-1-(4-(4-(1-(6-fluoro-2-(1-methyl-2,6-dioxopiperidin-3-yl)-1,3-dioxoisoindolin-5-yl)piperidin-4-yl)piperazin-1-yl)phenyl)urea]
antiproliferative effects [2]: no antiproliferative effects
degradative effect on CDK12/13 (CDK12/13): no degradative effect

Structure (SMILES): N#Cc1ccc(O[C@H]2CC[C@H](NC(=O)c3ccc(N4CCC(CN5CCN(c6cc7c(cc6F)C(=O)N(C6CCC(=O)NC6=O)C7=O)CC5)CC4)nn3)CC2)cc1Cl (stereo partly drawn) [ARV-110]
oral bioavailability [3]: good oral bioavailability
